Measurements taken from US20050222266A1, “2-indanylamino derivatives for the therapy of chronic pain” (priority 2002, published 2005).
Where a name gives a salt, the structure may show the parent alone.

Legend:
[1] = system: formalin-induced flinching and licking behavior; assay: formalin model of inflammatory pain in rats; type: in vivo
[2] = system: carrageenan-induced thermal hyperalgesia; assay: carrageenan-induced thermal hyperalgesia model; type: in vivo, rats; conditions: for minimum effective dose: given 3 hours after carrageenan
Protocol: In the carrageenan-induced thermal hyperalgesia model, male rats were habituated to the rat plantar test apparatus and thermal hyperalgesia was then assessed as described in the paragraph concerning the CCI model. Briefly, after baseline paw withdrawal latencies were determined, animals received an intraplantar injection of carrageenan (100 μl of a 20 mg/ml solution) into the right hind paw. Paw withdrawal latencies (PWL) were reassessed following the same protocol as above 2.5 hours after carrageenan. (this time point represented the start of peak hyperalgesia) to ascertain that hyperalgesia had developed. CHF 3381 (3-10-30-60 mg/kg i.p. and 10-30-60-100 mg/kg p.o.) was then administered 3 hours post carrageenan and paw withdrawal latencies were taken again at 3.5, 4 and 5 hours post carrageenan. Carrageenan induced a significant reduction of paw withdrawal latency in all animals at 2.5 hours following injection. This hyperalgesia was maintained in vehicle-treated animals for at least five hours after carrageenan. The i.p. and p.o. administration of CHF 3381 at 3 hours after carrageenan, dose-dependently antagonised the maintenance of thermal hyperalgesia with respective minimum effective doses of 10 mg/kg i.p. and 30 mg/kg p.o. (Table 5).

[3] = system: cold allodynia produced by CCI; assay: Chronic Constriction Injury (CCI) model, cold allodynia; type: in vivo, rat
Protocol: (§1) The potential analgesic activity of CHF 3381 was evaluated the Chronic Constriction Injury (CCI) model described by Bennett et al (Pain 1988, 33: 87-107). Briefly, the rat left common sciatic nerve was exposed, and proximal to the sciatic trifurcation about 10 mm of nerve was freed of adhering tissue and four ligatures (4.0 silk ) were loosely tied around it with about 1 mm of spacing.
(§2) Two tests of hind limb withdrawal to thermal and cold stimuli were employed in this study. Each test was repeated on both the operated hind paw and the controlateral hind paw.
Cold allodynia was assessed in operated rats, confining them into a clear plastic cylinders placed upon a metal floor chilled by an underlying water bath. A thermistor placed on the floor indicated a surface temperature of about 5° C. In this experimental condition, after the ligation operated rats respond by lifting the affected hind paw elevated above the floor. […] A maximum cut-off time of 20 sec was set to avoid any possible interference with the sensitivity of the animal to respond to subsequent exposure to the cold stimulus. Animals were pre-screened twice with 20 min interval between tests, in order to select for animals displaying clear signs of cold allodynia, i.e. animals with a paw withdrawal latency on the ligated side of <13 sec in both trials.
The animals were then assigned to groups consisting of at least 10 animals per group. CHF 3381 (10-30-60 mg/kg i.p.) or vehicle were administered to animals 7-14 days after ligation and cold allodynia tested 1 and 2 hours after treatment. CHF 3381 also reversed cold allodynia produced by CCI. This effect was again observed to be both time- and dose-dependent with the results generally concurring with those from the thermal hyperalgesia studies. The effect was maximum at 60-120 min after the administration and significant at the two higher tested doses (Table 1).

[4] = system: thermal hyperalgesia produced by CCI; assay: Chronic Constriction Injury (CCI) model, thermal hyperalgesia (plantar test); type: in vivo; conditions: rat CCI
Protocol: as §1, §2
Rats were tested for thermal hyperalgesia using a commercial available analgesimeter (Plantar test, Ugo Basile, Comerio Italy) by applying heat stimulus (50 W, 8V) directed onto the plantar surface of each hind paw, and the paw withdrawal latency (s) was determined. Four latency measurements were taken for each hind paw and averaged. The apparatus was calibrated to give a paw withdrawal latency of approximately 10 sec. The results were expressed as the difference score (DS) by subtracting the latency of the control side from the latency of the ligated side; if this difference was less than 1.5 sec, the animal was not included in the experimental groups. CHF 3381 (10-30-60 mg/kg intraperitoneally -i.p.-) or vehicle were administered to animals 14-21 days after ligation and hyperalgesia tested 1, 2 and 4 hours after treatment. CHF3381 reversed the thermal hyperalgesia produced by CCI in a dose- and time-dependent manner with a maximum effect at 60 min after the administration.

[5] = system: seizure models; conditions: in vivo; cited from earlier work
[6] = system: MAO (mono amino oxidase); assay: MAO inhibiting activity; type: biochemical

## NC(=O)CNC1Cc2ccccc2C1 [CHF 3381, N-2(indanyl)-glicinamide hydrochloride]
[1]
  flinching and licking behavior during the early and late nociceptive phases: clearly suppressed
[2]; 3 mg/kg i.p. at 3 h, 3.5 h after carrageenan
  Paw withdrawal latency: 5.1 ± 0.60 s
[2]; 3 mg/kg i.p. at 3 h, 4.0 h after carrageenan
  Paw withdrawal latency: 6.7 ± 0.64 s
[2]; 3 mg/kg i.p. at 3 h, 5.0 h after carrageenan
  Paw withdrawal latency: 8.3 ± 0.50 s
[2]; 3 mg/kg i.p. group, 0 h (baseline, before carrageenan and dosing)
  Paw withdrawal latency: 11.2 ± 0.92 s
[2]; 3 mg/kg i.p. group, 2.5 h after carrageenan (before dosing at 3 h)
  Paw withdrawal latency: 4.4 ± 0.50 s
[2]; 10 mg/kg i.p. at 3 h, 3.5 h after carrageenan
  Paw withdrawal latency: 7.4 ± 0.50 s
[2]; 10 mg/kg i.p. at 3 h, 4.0 h after carrageenan
  Paw withdrawal latency: 7.8 ± 0.66 s
[2]; 10 mg/kg i.p. at 3 h, 5.0 h after carrageenan
  Paw withdrawal latency: 8.4 ± 0.80 s
[2]; 10 mg/kg i.p. group, 0 h (baseline, before carrageenan and dosing)
  Paw withdrawal latency: 11.8 ± 0.49 s
[2]; 10 mg/kg i.p. group, 2.5 h after carrageenan (before dosing at 3 h)
  Paw withdrawal latency: 5.1 ± 0.50 s
[2]; 10 mg/kg p.o. at 3 h, 3.5 h after carrageenan
  Paw withdrawal latency: 6.65 ± 1.2 s
[2]; 10 mg/kg p.o. at 3 h, 4.0 h after carrageenan
  Paw withdrawal latency: 6.90 ± 0.61 s
[2]; 10 mg/kg p.o. at 3 h, 5.0 h after carrageenan
  Paw withdrawal latency: 7.29 ± 0.83 s
[2]; 10 mg/kg p.o. group, 0 h (baseline, before carrageenan and dosing)
  Paw withdrawal latency: 12.96 ± 1.01 s
[2]; 10 mg/kg p.o. group, 2.5 h after carrageenan (before dosing at 3 h)
  Paw withdrawal latency: 4.79 ± 0.71 s
[2]; 30 mg/kg i.p. at 3 h, 3.5 h after carrageenan
  Paw withdrawal latency: 6.8 ± 0.70 s
[2]; 30 mg/kg i.p. at 3 h, 4.0 h after carrageenan
  Paw withdrawal latency: 8.8 ± 0.80 s
[2]; 30 mg/kg i.p. at 3 h, 5.0 h after carrageenan
  Paw withdrawal latency: 8.1 ± 0.80 s
[2]; 30 mg/kg i.p. group, 0 h (baseline, before carrageenan and dosing)
  Paw withdrawal latency: 11.3 ± 0.84 s
[2]; 30 mg/kg i.p. group, 2.5 h after carrageenan (before dosing at 3 h)
  Paw withdrawal latency: 4.7 ± 0.60 s
[2]; 30 mg/kg p.o. at 3 h, 3.5 h after carrageenan
  Paw withdrawal latency: 7.38 ± 0.65 s
[2]; 30 mg/kg p.o. at 3 h, 4.0 h after carrageenan
  Paw withdrawal latency: 7.61 ± 0.59 s
[2]; 30 mg/kg p.o. at 3 h, 5.0 h after carrageenan
  Paw withdrawal latency: 9.04 ± 0.85 s
[2]; 30 mg/kg p.o. group, 0 h (baseline, before carrageenan and dosing)
  Paw withdrawal latency: 11.98 ± 0.71 s
[2]; 30 mg/kg p.o. group, 2.5 h after carrageenan (before dosing at 3 h)
  Paw withdrawal latency: 5.78 ± 0.93 s
[2]; 60 mg/kg i.p. at 3 h, 3.5 h after carrageenan
  Paw withdrawal latency: 8.0 ± 1.20 s
[2]; 60 mg/kg i.p. at 3 h, 4.0 h after carrageenan
  Paw withdrawal latency: 10.4 ± 1.39 s
[2]; 60 mg/kg i.p. at 3 h, 5.0 h after carrageenan
  Paw withdrawal latency: 10.7 ± 0.90 s
[2]; 60 mg/kg i.p. group, 0 h (baseline, before carrageenan and dosing)
  Paw withdrawal latency: 11.4 ± 0.85 s
[2]; 60 mg/kg i.p. group, 2.5 h after carrageenan (before dosing at 3 h)
  Paw withdrawal latency: 4.1 ± 0.50 s
[2]; 60 mg/kg p.o. at 3 h, 3.5 h after carrageenan
  Paw withdrawal latency: 8.68 ± 1.16 s
[2]; 60 mg/kg p.o. at 3 h, 4.0 h after carrageenan
  Paw withdrawal latency: 8.20 ± 0.85 s
[2]; 60 mg/kg p.o. at 3 h, 5.0 h after carrageenan
  Paw withdrawal latency: 8.34 ± 0.81 s
[2]; 60 mg/kg p.o. group, 0 h (baseline, before carrageenan and dosing)
  Paw withdrawal latency: 11.98 ± 0.67 s
[2]; 60 mg/kg p.o. group, 2.5 h after carrageenan (before dosing at 3 h)
  Paw withdrawal latency: 5.22 ± 0.58 s
[2]; 100 mg/kg p.o. and 60 mg/kg i.p.
  reversal of thermal hyperalgesia induced by carrageenan: nearly complete reversal
[2]; 100 mg/kg p.o. at 3 h, 3.5 h after carrageenan
  Paw withdrawal latency: 10.31 ± 1.20 s
[2]; 100 mg/kg p.o. at 3 h, 4.0 h after carrageenan
  Paw withdrawal latency: 8.72 ± 0.75 s
[2]; 100 mg/kg p.o. at 3 h, 5.0 h after carrageenan
  Paw withdrawal latency: 9.34 ± 0.85 s
[2]; 100 mg/kg p.o. group, 0 h (baseline, before carrageenan and dosing)
  Paw withdrawal latency: 13.24 ± 0.75 s
[2]; 100 mg/kg p.o. group, 2.5 h after carrageenan (before dosing at 3 h)
  Paw withdrawal latency: 5.52 ± 0.96 s
[2]; i.p.
  minimum effective dose: 10 mg/kg
[2]; p.o.
  minimum effective dose: 30 mg/kg
[3]; 10 mg/kg i.p., 60 min
  Allodynia paw withdrawal latency: 7.75 ± 1.36 s
[3]; 10 mg/kg i.p., 120 min
  Allodynia paw withdrawal latency: 8.71 ± 1.88 s
[3]; 30 mg/kg i.p., 60 min
  Allodynia paw withdrawal latency: 9.96 ± 1.70 s
[3]; 30 mg/kg i.p., 120 min
  Allodynia paw withdrawal latency: 9.89 ± 1.70 s
[3]; 60 mg/kg i.p., 60 min
  Allodynia paw withdrawal latency: 11.2 ± 1.33 s
[3]; 60 mg/kg i.p., 120 min
  Allodynia paw withdrawal latency: 12.68 ± 1.63 s
[4]; 10 mg/kg i.p.
  Hyperalgesia Difference score (DS): 1.41 ± 0.36 s
[4]; 30 mg/kg i.p.
  Hyperalgesia Difference score (DS): 0.83 ± 0.35 s
[4]; 60 mg/kg i.p.
  Hyperalgesia Difference score (DS): 0.68 ± 0.14 s
[5]
  antagonism of 4-aminopyridine- and bicuculline-induced tonic seizures: weaker antagonist
  behavioral effects and lethality of systematically administered NMDA: antagonize
  effect against maximal electroshock seizures, picrotoxin- and NMDA-induced hind limb tonic extension: very effective
  effect against pentylentetrazole- and picrotoxin-induced clonic seizures: ineffective
[6]
  inhibiting activity towards MAO: inhibiting activity
